# Test system: patients with refractory metastatic colorectal cancer (mCRC)
# Assay: PFS, OS and disease control in the training (evaluation) cohort of refractory mCRC patients receiving TAS-102 (n=52, Japan), by baseline characteristics, SNP genotype and toxicity
# Type: in vivo, human
# Description: All patients underwent the treatment in salvage-line setting. […]
# (§1) Genomic DNA was extracted from peripheral whole blood in patients of all cohorts using the QIAmp Kit (Qiagen, Valencia, Calif., USA) according to the manufacturer's protocol (www.qiagen.com). The candidate SNPs were genotyped using PCR-based direct DNA sequence analysis by ABI 3100A Capillary Genetic Analyzer and Sequencing Scanner v1.0 (Applied Biosystems). Amplification of extracted DNA was carried out using both forward and reverse primers for each gene polymorphism as shown in Table 1. […] The investigators analyzing SNPs were blinded to the clinical data of the study patients.
# The primary endpoint in this study was progression-free survival (PFS), and the secondary endpoints were overall survival (OS) and disease control rate (DCR). PFS was calculated from the date of starting treatment to the first observation of disease progression or death from any cause. If a patient had no disease progression or death, PFS was censored at the date of last follow up. OS was calculated from the date of starting treatment until the date of death from any cause or the date of the last follow-up, at which point OS was censored. The disease control rate (DCR) was defined as the proportion of patients who achieved a stable disease (SD) or […] according to RECISTv1.1. Chi-square test was used to examine the difference in baseline patient characteristics among the three cohorts. Allelic distribution of all SNPs by ethnicity for deviation from Hardy-Weinberg equilibrium and the allelic frequencies of SNPs were tested using the Chi-square tests with one degree of freedom. The associations between candidate SNPs and disease control, and toxicities were examined using contingency tables and Fisher's exact test. The associations of SNPs with PFS and OS were analysed using Kaplan-Meier curves and the log-rank test. Because the true mode of inheritance of candidate SNPs was not established yet, a codominant or dominant genetic model if appropriate was considered.
# All patients underwent the treatment in salvage-line setting. […] In all patients, adverse events were graded according to the Common Terminology Criteria for Adverse Events, version 4.0. […]
# as §1, with “tested” for “genotyped”, “Biosystems).” for “Biosystems). Amplification of extracted DNA was carried out using both forward and reverse primers for each gene polymorphism as shown in Table 1.”, “data.” for “data of the study patients.”
# The primary endpoint in this study was progression-free survival (PFS), and the secondary endpoints were overall survival (OS) and disease control rate (DCR).
# [1] = training cohort, OCT2 rs316019 C/C
# [2] = training cohort, hENT1 + OCT2/MATE1 classification: Fair
# [3] = training cohort, hENT1rs750370_19 Excellent
# [4] = training cohort, hENT1rs750370_19 Faire
# [5] = training cohort, hENT1rs750370_19 Faire vs Poor
# [6] = training cohort, hENT1rs750370_19 Good
# [7] = training cohort, hENT1rs750370_19 Good and Excellent combined
# [8] = training cohort, hENT1rs750370_19 Good and Excellent combined vs Poor
# [9] = training cohort, hENT1rs750370_19 Poor
# [10] = training cohort, hENT1 rs760370, multivariate adjusted for liver metastases and adjuvant history
# [11] = training cohort, hENT1 rs760370 A/A
# [12] = training cohort, hENT1 rs760370 A/G
# [13] = training cohort, hENT1 rs760370 A/G and G/G combined
# [14] = training cohort, hENT1 rs760370 A/G and G/G combined vs A/A
# [15] = training cohort, hENT1 rs760370 G/G
# [16] = training cohort, hENT1 rs760370 any G allele
# [17] = training cohort, hENT1 rs760370 any G vs A/A, univariate
# [18] = training cohort, hENT1 rs9394992 C/C
# [19] = training cohort, hENT1 rs9394992 C/T
# [20] = training cohort, hENT1 rs9394992 C/T and T/T combined
# [21] = training cohort, hENT1 rs9394992 C/T and T/T combined vs C/C
# [22] = training cohort, hENT1 rs9394992 T/T
# [23] = training cohort, hENT1 rs9394992 any T allele
# [24] = training cohort, hENT1 rs9394992 any T vs C/C, univariate
# [25] = training/evaluation cohort, grade 3≤ neutropenia vs less than grade 3, univariate
# [26] = training/evaluation cohort, neutropenia less than grade 3 (n=32)
# [27] = training/evaluation cohort, patients with grade 3≤ neutropenia (n=20)
# [28] = whole training (evaluation) cohort
substance,measurement,setting,value
Trifluridine/tipiracil [TAS-102],Progression-free Survival HR (95% CI) univariate,"training cohort, OCT2 rs316019 C/A and A/A combined vs C/C","0.74 (0.35, 1.52)"
same,Disease Control Rate PD,[1],24 (73%)
same,Disease Control Rate SD,[1],9 (27%)
same,"Overall Survival Median, months (95% CI)",[1],"8.1 (5.7, 12.4) months"
same,"Progression-free Survival Median, months (95% CI)",[1],"2.5 (2.1, 3.4) months"
same,Progression-free Survival HR (95% CI) multivariate,"training cohort, adjusted for liver metastasis and adjuvant history, CNT1 rs2290272 A/A genotype","1.01 (0.38, 2.68)"
same,Progression-free Survival HR (95% CI) multivariate,"training cohort, adjusted for liver metastasis and adjuvant history, CNT1 rs2290272 G/A genotype","0.64 (0.29, 1.39)"
same,Progression-free Survival HR (95% CI) multivariate,"training cohort, adjusted for liver metastasis and adjuvant history, CNT1 rs2290272 any A allele","0.71 (0.33, 1.50)"
same,Progression-free Survival HR (95% CI) multivariate,"training cohort, adjusted for liver metastasis and adjuvant history, MATE2 rs16960360 A/C or C/C genotype","1.07 (0.55, 2.07)"
same,Progression-free Survival HR (95% CI) multivariate,"training cohort, adjusted for liver metastasis and adjuvant history, OCT2 rs316000 A/G or G/G genotype","1.11 (0.48, 2.56)"
same,Progression-free Survival HR (95% CI) multivariate,"training cohort, adjusted for liver metastasis and adjuvant history, TK1 rs1065769 C/T or T/T genotype","1.13 (0.58, 2.18)"
same,OS,"training cohort, grade 2< neutropenia (so in the source)",8.3 months
same,HR for OS,"training cohort, grade 2< vs grade 2> neutropenia",0.41
same,OS,"training cohort, grade 2> neutropenia (so in the source)",4.4 months
same,OS,[2],7.2
same,PFS,[2],2.1 months
same,PFS,"training cohort, hENT1 + OCT2/MATE1 classification: Good or Excellent",3.5 months
same,OS,"training cohort, hENT1 + OCT2/MATE1 classification: Good or Excellent (third value as printed)",3.4
same,OS,"training cohort, hENT1 + OCT2/MATE1 classification: Poor (first value)",8.7
same,Disease Control Rate PD,[3],10 (50%)
same,Disease Control Rate SD,[3],10 (50%)
same,"Overall Survival Median, months (95% CI)",[4],"7.2 (2.7, 14.8) months"
same,"Progression-free Survival Median, months (95% CI)",[4],"2.1 (1.6, 4.1) months"
same,Overall Survival HR (95% CI) multivariate,[5],"0.37 (0.11, 1.23)"
same,Overall Survival HR (95% CI) univariate,[5],"0.37 (0.12, 1.16)"
same,Progression-free Survival HR (95% CI) multivariate,[5],"0.48 (0.20, 1.16)"
same,Progression-free Survival HR (95% CI) univariate,[5],"0.42 (0.17, 1.03)"
same,Disease Control Rate PD,[6],2 (67%)
same,Disease Control Rate SD,[6],1 (33%)
same,"Overall Survival Median, months (95% CI)",[7],"8.7 (8.1, 15.6) months"
same,"Progression-free Survival Median, months (95% CI)",[7],"3.5 (2.5, 4.6) months"
same,Overall Survival HR (95% CI) multivariate,[8],"0.08 (0.02, 0.41)"
same,Overall Survival HR (95% CI) univariate,[8],"0.14 (0.04, 0.48)"
same,Progression-free Survival HR (95% CI) multivariate,[8],"0.28 (0.11, 0.55)"
same,Progression-free Survival HR (95% CI) univariate,[8],"0.26 (0.11, 0.59)"
same,Disease Control Rate PD,[9],9 (100%)
same,Disease Control Rate SD,[9],0
same,"Overall Survival Median, months (95% CI)",[9],"3.4 (2.7, 6.5) months"
same,"Progression-free Survival Median, months (95% CI)",[9],"1.6 (0.9, 2.9) months"
same,PFS,"training cohort, hENT1 rs760370 + OCT2 rs316019/MATE1 rs2289669 classification: Poor",1.6 months
same,HR for OS,[10],0.27
same,HR for PFS,[10],0.44
same,Disease Control Rate PD,[11],19 (83%)
same,Disease Control Rate SD,[11],4 (17%)
same,OS,[11],5.3 months
same,"Overall Survival Median, months (95% CI)",[11],"5.3 (3.1, 12.4) months"
same,PFS,[11],2.1 months
same,"Progression-free Survival Median, months (95% CI)",[11],"2.1 (1.6, 2.9) months"
same,Disease Control Rate PD,[12],11 (55%)
same,Disease Control Rate SD,[12],9 (45%)
same,"Overall Survival Median, months (95% CI)",[13],"8.7 (8.1, 15.6+) months"
same,"Progression-free Survival Median, months (95% CI)",[13],"3.5 (2.5, 4.6) months"
same,Overall Survival HR (95% CI) multivariate,[14],"0.17 (0.05, 0.63)"
same,Overall Survival HR (95% CI) univariate,[14],"0.27 (0.10, 0.70)"
same,Progression-free Survival HR (95% CI) multivariate,[14],"0.44 (0.22, 0.89)"
same,Progression-free Survival HR (95% CI) univariate,[14],"0.44 (0.23, 0.83)"
same,Disease Control Rate PD,[15],1 (33%)
same,Disease Control Rate SD,[15],2 (67%)
same,OS,[16],8.7 months
same,PFS,[16],3.5 months
same,HR for OS,[17],0.27
same,HR for PFS,[17],0.44
same,HR for PFS,"training cohort, hENT1 rs9394992, multivariate adjusted for liver metastases and adjuvant history",0.44
same,Disease Control Rate PD,[18],15 (83%)
same,Disease Control Rate SD,[18],3 (17%)
same,OS,[18],4.4 months
same,"Overall Survival Median, months (95% CI)",[18],"4.4 (2.7, 7.2) months"
same,PFS,[18],1.9 months
same,"Progression-free Survival Median, months (95% CI)",[18],"1.9 (1.6, 2.7) months"
same,Disease Control Rate PD,[19],14 (64%)
same,Disease Control Rate SD,[19],8 (36%)
same,"Overall Survival Median, months (95% CI)",[20],"8.7 (8.1, 15.6+) months"
same,"Progression-free Survival Median, months (95% CI)",[20],"3.4 (2.3, 4.4) months"
same,Overall Survival HR (95% CI) multivariate,[21],"0.20 (0.08, 0.51)"
same,Overall Survival HR (95% CI) univariate,[21],"0.21 (0.08, 0.51)"
same,Progression-free Survival HR (95% CI) multivariate,[21],"0.44 (0.23, 0.86)"
same,Progression-free Survival HR (95% CI) univariate,[21],"0.48 (0.25, 0.91)"
same,Disease Control Rate PD,[22],2 (33%)
same,Disease Control Rate SD,[22],4 (67%)
same,OS,[23],8.7 months
same,PFS,[23],3.4 months
same,HR for OS,[24],0.21
same,HR for PFS,[24],0.48
same,HR for OS,[25],0.59
same,HR for PFS,[25],0.68
same,OS,[26],6.3 months
same,PFS,[26],2.1 months
same,OS,[27],8.3 months
same,PFS,[27],3.4 months
same,Median OS,[28],8.0 months
same,Median PFS,[28],2.6 months

# From patent publication US20190233884A1 (University of Southern California, priority 2016, published 2019)
